Test results reported in PMC4864329, “In vitro and in vivo efficacy, toxicity, bio-distribution and resistance selection of a novel antibacterial drug candidate” (Scientific Reports, 2016).
In brackets after ≈: the same amount, converted by molar mass. Read-outs that look alike come from different tables or passages of the source. Positions of bridges follow the written chain, without caps; N, C: chain ends. Non-standard residues stand in square brackets, D forms with d. Residues, ends and D or L forms follow the SMILES beside them. Chains are numbered I, II in the order given. βAla = NCCC(=O)O

Assays:
[1] = system: human lymphocytes; conditions: positive control
Description: Gene toxicity was assessed by testing the potential of SET-M33L to induce micronuclei in human lymphocytes. Human lymphocytes in whole blood culture, stimulated to divide by addition of PHA 48 hours prior to treatment, were exposed to SET-M33L for 3 hours with and without exogenous metabolic activation (S9 mix), and for 20 hours without S9 mix.
Analysis of micronucleated cells was based on the criteria described by Fenech and Morley[37] and Fenech[38]. […] Human lymphocytes from informed donors were pooled and diluted with HML media (RPMI 1640, supplemented with 10% fetal calf serum, 0.2 IU/ml sodium heparin, 20 IU/ml penicillin, 20 μg/ml streptomycin and 2.0 mM L-glutamine). […] Cultures were established from the prepared (pooled) sample and dispensed as 5 ml aliquots (in sterile universal containers) so that each culture contained blood (0.4 ml), HML media (4.5 ml) and PHA solution (0.1 ml). The cultures were then incubated at 37 °C, and the cells were resuspended (twice daily) by gentle inversion.
Lymphocyte cultures were incubated for approximately 48 hours after stimulation with PHA, before addition of SET-M33L; controls were appropriately diluted with vehicle. S9 homogenate was present in appropriate cultures at a final concentration of 2% v/v. Before treatment, all cultures were centrifuged and resuspended in the required volume of fresh medium, taking treatment volume and S9 mix volume into account. SET-M33L preparations were added to cultures at 10% v/v. Cultures were incubated at 37 °C for 3 or 20 hours.
The cells were centrifuged and the medium replaced with fresh medium. Cytochalasin B, at a final concentration of 6 μg/ml, was then added to all cultures. The cultures were incubated for a further 17 hours until the scheduled harvest time.
The cells were harvested by centrifugation at 500 g for 5 minutes. […] The prepared slides were examined by fluorescence microscopy. The incidences of mononucleate, binucleate and polynucleate cells were assessed per culture per 1000 binucleate cells. […]

[2] = system: BALB/c mice; assay: Acute toxicity in mice, single i.v. dose; format: in vivo, mouse
Description: As preliminary toxicity evaluation we first compared the acute toxicity of SET-M33L and SET-M33L-PEG with that of colistin. Animals (10 BALB/c mice/group) were injected i.v. with different amounts of SET-M33L, SET-M33L-PEG or colistin, in single dose, in the range 5–40 mg/kg (Fig. 4), and were monitored for 4 days after inoculation of the peptide. […] At 40 mg/Kg SET-M33L and SET-M33L-PEG produced similar toxicity profiles with strong signs of toxicity and 90–100% mortality after 96 hours. Colistin produced strong signs of toxicity already at 10 mg/Kg: 50% mortality immediately after inoculation and 70% mortality after 24 hours. Colistin induced sudden death in 100% of mice at 20 and 40 mg/Kg.
Mice were treated by a single i.v. administration of different amounts (40, 20, 10, 5 mg/Kg) of SET-M33L, SET-M33L-PEG or colistin sulfate (Sigma-Aldrich, C4461). Signs of toxicity were checked four times a day by visual inspection. A toxicity score was assigned for the following signs: wiry coat and poor motility = mild signs; very wiry coat, abundant lachrymation and poor motility even under stimulation = manifest signs. Animals were monitored for 4 days after inoculation of the peptide. Mice were weighed every day from arrival to the last day of the experiment. Moribund animals were killed humanely to avoid unnecessary distress.

[3] = system: Klebsiella pneumoniae clinical isolates; format: cell-based; conditions: clinical isolates
Description: Minimum inhibitory concentrations (MICs) of SET-M33L were determined against 76 clinical isolates of Pseudomonas aeruginosa and 73 clinical isolates of Klebsiella pneumoniae. The isolates were selected on the basis of their resistance phenotypes and major antibiotic resistance determinants, including resistance to colistin and carriage of carbapenemase-encoding genes (Table 1 and supplemental Tables S1 and S2).
MIC values were determined against a large collection of clinical isolates. Most isolates were collected during routine susceptibility testing procedures at the Clinical Microbiology Unit of Careggi University Hospital in Florence, while specific isolates were selected according to their phenotype or genotype (e.g. carriage of carbapenemase-encoding genes, inclusion in epidemic bacterial clones, resistance to colistin) from a collection of isolates already available at Department of Medical Biotechnologies, University of Siena. Detailed features of each strain, including relevant resistance phenotypes and genotypes were reported in supplemental Tables S1 and S2. MICs were determined in triplicate using a standard microdilution assay according to the guidelines of the Clinical and Laboratory Standards Institute[34]. SET-M33L was assayed using concentrations in the range 0.09–11.2 μM (0.5–64 μg/mL); testing was performed using a bacterial inoculum of 5 × 10^4 CFU/well prepared in cation-supplemented Mueller-Hinton broth (MHB) (Becton Dickinson, Franklin Lakes, NJ, USA) in a final volume of 100 μl. Results were recorded after 18–20 h of incubation at 35 °C.

[4] = system: K. pneumoniae strain KKBO-1; format: cell-based, Klebsiella pneumoniae; conditions: K. pneumoniae KKBO-1
Description: Tests were performed by plating cells on SET-M33L- or colistin-containing MHB.

O=P1(N(CCCl)CCCl)NCCCO1 (stereo not shown) [CPA, Cyclophosphamide]
Mean of binucleate cells containing micronuclei per 1000 cells ([1]; 3h + S9, 10 μg/ml): 17.0 per 1000 cells

CO[C@@]12[C@H](COC(N)=O)C3=C(C(=O)C(C)=C(N)C3=O)N1C[C@@H]1N[C@@H]12 [MMC, Mitomycin C]
Mean of binucleate cells containing micronuclei per 1000 cells ([1]; 3h − S9, 0.2 μg/ml): 28.0 per 1000 cells | Mean of binucleate cells containing micronuclei per 1000 cells ([1]; 20h − S9, 0.05 μg/ml): 22.5 per 1000 cells

CC[C@H](C)[C@H](NC(=O)[C@H](CCCCN)NC(=O)[C@@H](N)CCCCN)C(=O)N[C@@H](CCCNC(=N)N)C(=O)N[C@H](C(=O)N[C@@H](CCCNC(=N)N)C(=O)N[C@@H](CC(C)C)C(=O)N[C@@H](CO)C(=O)N[C@@H](C)C(=O)NCCCC[C@H](NC(=O)[C@H](C)NC(=O)[C@H](CO)NC(=O)[C@H](CC(C)C)NC(=O)[C@H](CCCNC(=N)N)NC(=O)[C@@H](NC(=O)[C@H](CCCNC(=N)N)NC(=O)[C@@H](NC(=O)[C@H](CCCCN)NC(=O)[C@@H](N)CCCCN)[C@@H](C)CC)C(C)C)C(=O)NCCCC[C@H](NC(=O)[C@H](CCCCNC(=O)[C@H](C)NC(=O)[C@H](CO)NC(=O)[C@H](CC(C)C)NC(=O)[C@H](CCCNC(=N)N)NC(=O)[C@@H](NC(=O)[C@H](CCCNC(=N)N)NC(=O)[C@@H](NC(=O)[C@H](CCCCN)NC(=O)[C@@H](N)CCCCN)[C@@H](C)CC)C(C)C)NC(=O)[C@H](C)NC(=O)[C@H](CO)NC(=O)[C@H](CC(C)C)NC(=O)[C@H](CCCNC(=N)N)NC(=O)[C@@H](NC(=O)[C@H](CCCNC(=N)N)NC(=O)[C@@H](NC(=O)[C@H](CCCCN)NC(=O)[C@@H](N)CCCCN)[C@@H](C)CC)C(C)C)C(=O)NCCC(=O)O)C(C)C [SET-M33L] (I: H-KKIRVRLSAKK[βAla]-OH / II: H-KKIRVRLSAK / III: H-KKIRVRLSA / IV: H-KKIRVRLSA; amide I:10-IV:C, I:11-II:C, II:10-III:C)
mortality ([2]; single i.v. dose 40 mg/Kg, after 96 hours): 90–100% | lethality and signs of toxicity ([2]; single i.v. dose up to 20 mg/kg, monitored 4 days, 10 BALB/c mice/group): not lethal and no signs of toxicity were observed | MIC [3]: > 64 µg/mL | MIC [4]: 0.35 µM (≈ 1.64 µg/mL)
